# Laboratory results reported in patent US6472348B1, “Pyridone derivatives and herbicides” (Kumiai Chemical Industry Co., Ltd., priority 1996, dated 2002).
# Tests used:
# [1] = tested on: wheat (Tr); test: Test Example 9: crop plant selectivity by upland field foliage treatment (wheat), phytotoxicity; details: dose 1.6 g ai/10a, 14th day after treatment;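 note: grade of crop injury; 5 = at least 90%; 4 = 70 to 90%; 3 = 50 to 70%; 2 = 30 to 50%; 1 = 10 to 30%; 0 = under 10%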
# In short: (§1)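 Seeds of wheat, pale smartweed, slender amaranth, common lambsquarters and China jute are sown in sand and grown 2 weeks under glass. Foliage is then treated, culture resumes in the greenhouse, and damage is graded on the 14th day.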
# [2] = tested on: corn (Ze); test: Test Example 11: crop plant selectivity by upland field foliage treatment (corn), phytotoxicity; details: dose 1.6 g ai/10a
# Protocol: (§2) (Test on Crop Plant Selectivity by Upland Field Foliage Treatment)
# (§3) In a plastic pot (surface area: 600 cm^2) filled with sand, corn (Ze), pale smartweed (Po), slender amaranth (Am), common lambsquarters (Ch) and China jute (Ab) were sown and cultured in a green house for 2 weeks. […] The plants were then cultured in a green house, and the evaluation of the herbicidal effects and phytotoxicity was conducted on the 14th day after the treatment in accordance with the standards as identified in Table 47.
# [3] = tested on: pale smartweed (Po); test: Test Example 11: crop plant selectivity by upland field foliage treatment (corn), herbicidal effects; format: in vivo; parameters: scale not given here; details: dose 1.6 g ai/10a
# Protocol: as §2, §3
# [4] = tested on: China jute (Ab); test: as above; format: in vivo; parameters: scale not given here; details: dose 1.6 g ai/10a
# Protocol: as §2, §3
# [5] = tested on: common lambsquarters (Ch); test: as above; format: in vivo; parameters: scale not given here; details: dose 1.6 g ai/10a
# Protocol: as §2, §3
# [6] = tested on: slender amaranth (Am); test: as above; format: in vivo; parameters: scale not given here; details: dose 1.6 g ai/10a
# Protocol: as §2, §3
# [7] = tested on: pale smartweed (Po); test: Test Example 9: crop plant selectivity by upland field foliage treatment (wheat), herbicidal effects; format: in vivo; parameters: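 grade of growth control; 5 = at least 90%; 4 = 70 to 90%; 3 = 50 to 70%; 2 = 30 to 50%; 1 = 10 to 30%; 0 = under 10%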; details: dose 1.6 g ai/10a, 14th day after treatment
# In short: as §1
# [8] = tested on: China jute (Ab); test: as above; format: in vivo; parameters: scale not given here; details: dose 1.6 g ai/10a, 14th day after treatment
# In short: as §1
# [9] = tested on: common lambsquarters (Ch); test: as above; format: in vivo; parameters: scale not given here; details: dose 1.6 g ai/10a, 14th day after treatment
# In short: as §1
# [10] = tested on: slender amaranth (Am); test: as above; format: in vivo; parameters: scale not given here; details: dose 1.6 g ai/10a, 14th day after treatment
# In short: as §1
# [11] = tested on: barnyardgrass (Ec); test: Test Example 1: herbicidal effects by paddy field soil treatment; format: in vivo; details: 100 g of the active ingredient per 10 ares, 21st day after the application, index 0-5 of Table 47;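 note: grade of growth control; 5 = at least 90%; 4 = 70 to 90%; 3 = 50 to 70%; 2 = 30 to 50%; 1 = 10 to 30%; 0 = under 10%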
# In short: (§4)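 Greenhouse pot test in flooded paddy soil, dosed at 100 g a.i. per 10 ares; effect scored on day 21.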
# [12] = tested on: monochoria (Mo); test: as above; format: in vivo; details: 100 g of the active ingredient per 10 ares, 21st day after the application, index 0-5 of Table 47;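 note: grade of growth control; 5 = at least 90%; 4 = 70 to 90%; 3 = 50 to 70%; 2 = 30 to 50%; 1 = 10 to 30%; 0 = under 10%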
# In short: as §4
# [13] = tested on: bulrush (Sc); test: as above; format: in vivo; details: 100 g of the active ingredient per 10 ares, 21st day after the application, index 0-5 of Table 47;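 note: grade of growth control; 5 = at least 90%; 4 = 70 to 90%; 3 = 50 to 70%; 2 = 30 to 50%; 1 = 10 to 30%; 0 = under 10%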
# In short: as §4
# [14] = tested on: pale smartweed (Po); test: Test Example 3: herbicidal effects by upland field foliage treatment; format: in vivo; parameters: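 grade of growth control; 5 = at least 90%; 4 = 70 to 90%; 3 = 50 to 70%; 2 = 30 to 50%; 1 = 10 to 30%; 0 = under 10%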; details: 100 g of the active ingredient per 10 ares, evaluated on the 14th day after treatment
# In short: (§5)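 Foliage-applied treatment on weeds pre-grown for 2 weeks in a greenhouse. Pots held sand (surface area 120 cm^2); seeds were sown and covered with soil. Evaluation: graded herbicidal effect 14 days post-application.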
# [15] = tested on: barnyardgrass (Ec); test: as above; format: in vivo; parameters: scale not given here; details: 100 g of the active ingredient per 10 ares, evaluated on the 14th day after treatment
# In short: as §5
# [16] = tested on: rice flatsedge (Ci); test: as above; format: in vivo; parameters: scale not given here; details: 100 g of the active ingredient per 10 ares, evaluated on the 14th day after treatment
# In short: as §5
# [17] = tested on: common lambsquarters (Ch); test: as above; format: in vivo; parameters: scale not given here; details: 100 g of the active ingredient per 10 ares, evaluated on the 14th day after treatment
# In short: as §5
# [18] = tested on: slender amaranth (Am); test: as above; format: in vivo; parameters: scale not given here; details: 100 g of the active ingredient per 10 ares, evaluated on the 14th day after treatment
# In short: as §5
# [19] = tested on: Diaitaria ciliaris (Di); test: as above; format: in vivo; parameters: scale not given here; details: 100 g of the active ingredient per 10 ares, evaluated on the 14th day after treatment
# In short: as §5
# [20] = tested on: pale smartweed (Po); test: Test Example 2: herbicidal effects by upland field soil treatment; format: in vivo; details: 100 g of the active ingredient per 10 ares, 21st day after the application, index 0-5 of Table 47
# Source text: (§6) (Test on Herbicidal Effects by Upland Field Soil Treatment)
# [21] = tested on: barnyardgrass (Ec); test: as above; format: in vivo; details: 100 g of the active ingredient per 10 ares, 21st day after the application, index 0-5 of Table 47
# Source text: as §6
# [22] = tested on: rice flatsedge (Ci); test: as above; format: in vivo; details: 100 g of the active ingredient per 10 ares, 21st day after the application, index 0-5 of Table 47
# Source text: as §6
# [23] = tested on: common lambsquarters (Ch); test: as above; format: in vivo; details: 100 g of the active ingredient per 10 ares, 21st day after the application, index 0-5 of Table 47
# Source text: as §6
# [24] = tested on: Digitaria ciliaris (Di); test: as above; format: in vivo; details: 100 g of the active ingredient per 10 ares, 21st day after the application, index 0-5 of Table 47
# Source text: as §6
# [25] = tested on: slender amaranth (Am); test: as above; format: in vivo; details: 100 g of the active ingredient per 10 ares, 21st day after the application, index 0-5 of Table 47
# Source text: as §6
# [26] = upland field foliage treatment, 14th day after treatment
# [27] = upland field foliage treatment (corn test), 14th day after treatment
SMILES,Phytotoxicity Tr [1],"Phytotoxicity Ze [2, 26]","Herbicidal effects Po [3, 27]","Herbicidal effects Ab [4, 27]","Herbicidal effects Ch [5, 27]","Herbicidal effects Am [6, 27]",Herbicidal effects Po [7],Herbicidal effects Ab [8],Herbicidal effects Ch [9],Herbicidal effects Am [10],also measured
C#CC(C)Oc1cc(-c2ccc(C(F)(F)F)n(C)c2=O)c(Cl)cc1Cl (stereo not shown) [1-31],2,2,5,5,5,5,5,5,5,5,
"CC(C)OC(=O)c1cc(-c2ccc(C(F)(F)F)n(C)c2=O)c(F)cc1Cl [Compound No. 1-66, isopropyl 5-(1-methyl-6-trifluoromethyl-2(1H)-pyridon-3-yl)-2-chloro-4-fluorobenzoate]",,2,5,5,5,5,,,,,Herbicidal effects Ec [11]: 5; Herbicidal effects Mo [12]: 5; Herbicidal effects Sc [13]: 5; Herbicidal effects Po [14]: 5; Herbicidal effects Ec [15]: 5; Herbicidal effects Ci [16]: 5; Herbicidal effects Ch [17]: 5; Herbicidal effects Am [18]: 5; Herbicidal effects Di [19]: 5; Herbicidal effects Po [20]: 5; Herbicidal effects Ec [21]: 5; Herbicidal effects Ci [22]: 5; Herbicidal effects Ch [23]: 5; Herbicidal effects Di [24]: 5; Herbicidal effects Am [25]: 5
CCC(Br)c1cc2c(-c3ccc(C(F)(F)F)n(C)c3=O)c(F)cc(Cl)c2o1 (stereo not shown) [Compound 4-38],2,,,,,,5,5,5,5,"Phytotoxicity Ze ([2]; corn, foliage treatment, evaluated on 14th day after treatment, index per Table 47): 2; Herbicidal effects Po ([3]; pale smartweed, foliage treatment, evaluated on 14th day after treatment, index per Table 47): 5; Herbicidal effects Ab ([4]; China jute, foliage treatment, evaluated on 14th day after treatment, index per Table 47): 5; Herbicidal effects Ch ([5]; common lambsquarters, foliage treatment, evaluated on 14th day after treatment, index per Table 47): 5; Herbicidal effects Am ([6]; slender amaranth, foliage treatment, evaluated on 14th day after treatment, index per Table 47): 5"
